This is an account of results in patent publication US20150250892A1, “BIODEGRADABLE POLYMERIC BUFFERS” (Northeastern University, priority 2012, published 2015).

What is called IC50 is the concentration that inhibits the measured activity by half. Read a low IC50 as greater potency. The term logP denotes a log measure of how a compound divides between an organic and an aqueous phase.

One data set concerns SKOV3 cells. As to the kind of experiment: Cytotoxicity evaluation of drug loaded HA nanoparticles on ovarian cancer cells. Conditions: free drug. The class given is cell-based. From the text: 9) Cytotoxicity Evaluation of Drug Loaded HA Nanoparticles on Ovarian Cancer Cells: […]
For data set [1] the following is noted: of the free drug; cited from earlier work.
Data set [2] concerns MDA-MB-231 breast cancer cell lines. As to the kind of experiment: In vitro cell uptake of free doxorubicin (DOX) and DOX loaded HA polymers. To be noted: 20 μM, 1 h incubation, fluorescence microscopy. The class given is cell-based. The procedure: In order to determine the pH altering effects of the hyaluronic acid-lipid modified polymers and cellular trafficking of drugs, a model fluorescent drug, doxorubicin, was encapsulated into the unmodified and modified HA polymers and tested on MDA-MB-231 breast cancer cell lines.
After 1 h of incubation, the cells were washed thrice with PBS and the uptake of DOX in the cells was observed using a fluorescence microscope.

[3] abbreviates: Homo sapiens, SK-OV-3, 48 hour timepoint.

Consider `CC[C@@]1(O)C(=O)OCc2c1cc1n(c2=O)Cc2cc3ccccc3nc2-1` [Camptothecin], for which it took 820 nM to reach half-maximal inhibition in the data set on SKOV3 cells (setting [3]) (IC50). For `CC[C@@]1(O)C(=O)OCc2c1cc1n(c2=O)Cc2cc3c(CN(C)C)c(O)ccc3nc2-1` [Topotecan], in the data set with SKOV3 cells (setting [3]), the IC50 is 220 nM. Further, the logP in data set [1] is listed as 0.8. `COc1cc([C@@H]2c3cc4c(cc3[C@@H](O[C@@H]3O[C@@H]5CO[C@@H](C)O[C@H]5[C@H](O)[C@H]3O)[C@H]3COC(=O)[C@H]23)OCO4)cc(OC)c1O` [Etoposide] had a half-inhibitory concentration (IC50) in the data set on SKOV3 cells (setting [3]) of 4580 nM.

`CC(=O)[C@]1(O)Cc2c(O)c3c(c(O)c2[C@@H](O[C@H]2C[C@H](N)[C@H](O)[C@H](C)O2)C1)C(=O)c1ccccc1C3=O` [Idarubicin]: it took 3820 nM to reach half-maximal inhibition in the data set on SKOV3 cells (setting [3]) (IC50). Besides, in data set [1], the logP is 0.2.

The compound `COc1cccc2c1C(=O)c1c(O)c3c(c(O)c1C2=O)C[C@@](O)(C(=O)CO)C[C@@H]3O[C@H]1C[C@H](N)[C@H](O)[C@H](C)O1` [Doxorubicin] came in with a concentration for half-maximal inhibition (IC50) in the data set with SKOV3 cells (48 hour timepoint) of 5780 nM. The logP in data set [1] is −0.5. In addition, in data set [2], the “uptake of DOX in the nucleus” value is given as “much lower in the nucleus”.

In turn, `CC(=O)O[C@H]1C(=O)[C@@]2(C)[C@H]([C@H](OC(=O)c3ccccc3)[C@]3(O)C[C@H](OC(=O)[C@H](O)[C@@H](NC(=O)c4ccccc4)c4ccccc4)C(C)=C1C3(C)C)[C@]1(OC(C)=O)CO[C@@H]1C[C@@H]2O` [Paclitaxel] had an IC50 with SKOV3 cells (setting [3]) of 10.1 nM.
